The subject of the data set is BxPC3 tumors. The experiment in a line: Protocol 95: TCMC saturation, CA amount and ^212Pb activity on tumor-associated radioactivity. The format is in vivo, mice. Particulars: no clearing agent. The text has this: In this study, nine different clearing agents based on dextran-500 were compared in terms of inhibition of ^212Pb-DOTAM association to tumors. More specifically, the experiment assessed the impact on tumor-associated radioactivity from i) TCMC saturation, ii) clearing agent-to-antibody ratio, and iii) production/purification method. In addition, the tumor uptake was compared after injection of 10 or 30 μCi of ^212Pb-DOTAM, without pretargeting or CA, to assess whether radioactivity saturation of the tumor was achieved already at the lower dose.
PRIT-0165 (100 μg per 100 μL) was administered i.v., followed three days later by dextran-500-based clearing reagents (10-170 μg per 100 μL) with varying TCMC substitution (10-100%). Groups J and K received PBS instead of clearing agent. Two hours later, mice were injected i.v. with 100 μL of the respective ^212Pb-DOTAM solutions (10 or 30 μCi).
Mice were sacrificed and necropsied 24 hours after injection of ^212Pb-DOTAM. Blood, bladder, spleen, kidneys, liver, lung, muscle, tail, and tumors were collected, weighed and measured for radioactivity content, and the % ID/g subsequently calculated.

For the compound `NC(=O)CN1CCN(CC(N)=O)CCN(CC(N)=O)CCN(CC(N)=O)CC1.[212Pb+2]` [^212Pb-DOTAM], the “tumor accumulation (±SD, n=3)” value worked out at 72.38±10.83 % ID/g (10 μCi) and 107.74±14.71 % ID/g (30 μCi).

(Values after patent US20260015436A1, “ANTIBODIES FOR CHELATED RADIONUCLIDES” (Hoffmann-La Roche Inc., priority 2018, published 2026).)
